Data taken from PMC9401487 (Clinical Cancer Research, 2021).
Where two headings read alike, the source gives them in different places.

Legend:
patients = conditions: cited from earlier work
[1] = test system: LoVo colorectal cancer cell line; assay: LoVo growth inhibition, ceralasertib alone or with carboplatin; format: cell-based, human; conditions: Homo sapiens, LoVo, read-out: GI50 (50% growth inhibition)

## CNCc1ccc(-c2cc(-c3nc(-c4ccc(S(=O)(=O)C(C)C)cc4)cnc3N)on2)cc1 [berzosertib]
patients; 90 mg/m^2 + carboplatin AUC5
  Tolerability: tolerated
patients; 240 mg/m^2 + carboplatin AUC5, 3 patients
  Patients with grade 3/4 neutropenia: 3 patients
patients; 240 mg/m^2 days 1 and 8 every 21 days + carboplatin AUC5 day 1
  Tolerability: not tolerated
[1]
  GI50: 0.09 µM
